These results are taken from patent US10221175B2, “Substituted pyrrolo[3,4-e]indolizines, imidazo[1,2-a]pyrrolo[3,4-e]pyridines, pyrrolo[3,4-e][1,2,4]triazolo[1,5-a]pyridines and pyrrolo[3,4-e][1,2,4]triazolo[4,3-a]pyridines as positive allosteric modulators of muscarinic acetylcholine receptor M1” (Vanderbilt University, priority 2015, dated 2019).

Broadly, the EC50 is the concentration giving half of the maximal effect.

The target in this test is T1, mAChR M1 (UniProt P11229).
T1 sequence (P11229 1-460): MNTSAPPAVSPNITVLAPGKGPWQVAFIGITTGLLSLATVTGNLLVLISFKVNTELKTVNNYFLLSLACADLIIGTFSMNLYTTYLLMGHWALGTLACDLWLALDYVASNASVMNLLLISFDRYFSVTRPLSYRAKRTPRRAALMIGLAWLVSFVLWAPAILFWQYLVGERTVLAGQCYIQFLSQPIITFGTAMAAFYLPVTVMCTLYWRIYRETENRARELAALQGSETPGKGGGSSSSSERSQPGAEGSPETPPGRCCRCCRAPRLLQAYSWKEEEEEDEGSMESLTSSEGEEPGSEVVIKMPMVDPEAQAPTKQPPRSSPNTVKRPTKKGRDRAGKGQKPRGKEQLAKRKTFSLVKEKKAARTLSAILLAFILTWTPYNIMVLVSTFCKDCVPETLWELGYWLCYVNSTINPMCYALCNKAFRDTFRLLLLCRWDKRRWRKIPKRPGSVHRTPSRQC
Nature of the test: mAChR M1 cell-based functional assay (calcium mobilization, potentiation of EC20 acetylcholine response). The note with it: for M1 AChmax (%): maximal response as % of ACh maximum, CHO-K1 cells expressing M1; for EC50: positive allosteric modulator activity, concentration-dependent increase in EC20 acetylcholine response, CHO-K1 cells, >10 μM estimated where no plateau but >20% increase in ACh response. An excerpt:
Chinese hamster ovary (CHO-K1) cells stably expressing rat (r)M1 were purchased from the American Type Culture Collection and cultured according to their indicated protocol. CHO cells stably expressing human (h)M2, hM3, and hM5 were described previously (Levey, et al., 1991); hM1 and hM4 cDNAs were purchased from Missouri S&T cDNA Resource; rM4 cDNA was provided by T. I. Bonner (National Institutes of Health, Bethesda, Md.). rM2 and rM3 were cloned from a rat brain cDNA library and sequence verified. hM1, rM2, rM3, hM4, and rM4 cDNAs were used to stably transfect CHO-K1 cells purchased from the American Type Culture Collection using Lipofectamine2000. To make stable rM2, hM2, rM3, hM4, and rM4 cell lines for use in calcium mobilization assays, these cells also were stably transfected with a chimeric G-protein (Gqi5) (provided by B. R. Conklin, University of California, San Francisco) using Lipofectamine 2000. rM1, hM1, rM3, hM3, rM5, and hM5 cells were grown in Ham's F-12 medium containing 10% heat-inactivated fetal bovine serum (FBS), 20 mM HEPES, and 50 μg/mL G418 sulfate. rM2-Gqi5, hM2-Gqi5, and hM4-Gqi5 cells were grown in the same medium also containing 500 μg/mL Hygromycin B. Stable rM4-Gqi5 cells were grown in DMEM containing 10% heat-inactivated FBS, 20 mM HEPES, 400 μg/mL G418 sulfate, and 500 μg/mL Hygromycin B.
For high throughput measurement of agonist-evoked increases in intracellular calcium, CHO-K1 cells stably expressing muscarinic receptors were plated in growth medium lacking G418 and hygromycin at 15,000 cells/20 μL/well in Greiner 384-well black-walled, tissue culture (TC)-treated, clear-bottom plates (VWR). Cells were incubated overnight at 37° C. and 5% CO2. The next day, cells were washed using an ELX 405 (BioTek) with four washes (80 μL) of assay buffer then aspirated to 20 μL. Next, 20 μL of 16 μM Fluo-4/acetoxymethyl ester (Invitrogen, Carlsbad, Calif.) prepared as a 2.3 mM stock in DMSO and mixed in a 1:1 ratio with 10% (w/v) Pluronic F-127 and diluted in assay buffer was added to the wells and the cell plates were incubated for 50 min at 37° C. and 5% CO2. Dye was removed by washing with the ELX 405 (four 80 μL washes of assay buffer) then aspirated to 20 μL. Compound master plates were formatted in an 11 point CRC format (1:3 dilutions) in 100% DMSO with a starting concentration of 10 mM using the BRAVO liquid handler (Agilent). Test compound CRCs were then transferred to daughter plates (240 nL) using the Echo acoustic plate reformatter (Labcyte, Sunnyvale, Calif.) and then diluted into assay buffer (40 μL) to a 2× stock using a Thermo Fisher Combi (Thermo Fisher Scientific, Waltham, Mass.).
Calcium flux was measured using the Functional Drug Screening System (FDSS) 6000 (Hamamatsu Corporation, Tokyo, Japan) as an increase in the fluorescent static ratio. Compounds were applied to cells (20 μL, 2×) using the automated system of the FDSS 6000 at 4 s into the 300 s protocol and the data were collected at 1 Hz. At 144 s into the 300s protocol, 10 μL of an EC20 concentration of the muscarinic receptor agonist acetylcholine was added (5×), followed by the addition of 12 μL an EC8O concentration of acetylcholine at the 230 s time point (5×). Agonist activity was analyzed as a concentration-dependent increase in calcium mobilization upon compound addition. Positive allosteric modulator activity was analyzed as a concentration-dependent increase in the EC20 acetylcholine response. Antagonist activity was analyzed as a concentration-dependent decrease in the EC80 acetylcholine response. Concentration-response curves were generated using a four-parameter logistical equation in XLfit curve fitting software (IDBS, Bridgewater, N.J.) for Excel (Microsoft, Redmond, Wash.) or Prism (GraphPad Software, Inc., San Diego, Calif.). […]

The structures appear in SMILES notation.

As to `Cn1cc(-c2cc(F)c(CN3Cc4ccc5nccn5c4C3=O)c(F)c2)cn1` [Compound 28, 2-(2,6-difluoro-4-(1-methyl-1H-pyrazol-4-yl)benzyl)-2,3-dihydro-1H-imidazo[1,2-a]pyrrolo[3,4-e]pyridin-1-one], the “M1 AChmax (%)” value is given as 67.7% and the EC50 is 2.37 µM. Regarding `Cc1nnc2ccc3c(n12)C(=O)N(Cc1c(F)cc(-c2ccc4nn(C)cc4c2)cc1F)C3` [Compound 15], the “M1 AChmax (%)” value is given as 76% and the EC50 was 1.24 µM.

As to `Cc1cn2c3c(ccc2n1)CN(Cc1c(F)cc(-c2cnn(C)c2)cc1F)C3=O` [Compound 29], the EC50 is more than 30 µM. As to `COc1ccc(-c2ccc(F)c(CN3Cc4ccc5nncn5c4C3=O)c2)cn1` [Compound 26], the 50% effective concentration (EC50) is more than 30 µM. For `Cn1cc2cc(-c3ccc(CN4Cc5ccc6nccn6c5C4=O)c(F)c3)ccc2n1` [Compound 34], the “M1 AChmax (%)” value amounted to 62% and the EC50 was 3.9 µM.
